One compound from patent US10435399B2, “HDAC6 inhibitory heterocyclic compound” (TAKEDA PHARMACEUTICAL COMPANY LIMITED, priority 2017, dated 2019) can be followed below.

One series relates to bone-marrow cells. The series can be described thus: Micronucleus test in rats (bone-marrow cells). Format: in vivo, rats (Crl:CD(SD)). The note with it: rats, 1000 mg/kg and 2000 mg/kg once daily for 3 days. As to the method: Combination Assay of Micronucleus Test and Comet Assay in Rats […] Bone-marrow smear for micronucleus analysis was prepared as follows. Femur was cut at both ends, and washed with fetal bovine serum (FBS) in a centrifuging tube, and the obtained bone-marrow fluid was centrifuged for 5 min at room temperature. The supernatant was removed, and the cell sediment was suspended in the remaining small amount of the supernatant. A part of the suspension was dropped on a glass slide, and a cover glass was placed thereon to give a bone-marrow smear. The smear was dried well, and fixed with methanol for 5 min. The bone-marrow smear of negative control, that of treatment groups as well as the previously prepared bone-marrow smear of positive control group were encoded, and observed by the blind method. An acridine orange solution (40 μg/mL) was dropped (several drops) to the smear just before observation, and a cover glass was placed thereon. […] In addition, as an index of growth inhibitory effect on bone-marrow cell, total of 500 erythrocytes [immature erythrocytes+mature erythrocytes (ME)] per individual were observed, and immature erythrocyte rate (IE %) relative to the total number of erythrocytes was calculated.

For a further series, the system named is TK6 cells. Description: γH2AX assay using TK6 cells. Format: cell-based, Human. The following applies: 4 hr treatment, up to 100 μM. As to the method:
γH2AX Assay Using TK6 Cells
Human lymphoblasts-derived TK6 cells were treated with the compounds of Examples 489, 512 or 519 at 0, 10, 30 or 100 μmol/L (final concentration) for 4 hr, and the presence or absence of DNA damage was evaluated by measuring phosphorylation of histone H2AX (γH2AX) as a marker. In addition, cytotoxicity after 24-hr treatment was also evaluated.
Exponentially growing TK6 cells were prepared at the cell density of 4×10^5 cells/mL in a culture medium, and was added to a 96-well plate by 100 μL/well. A test compound solution (2% DMSO) prepared using a culture solution, having twice the concentration on the above-mentioned final concentrations, was added thereto by 100 μL/well. This plate was incubated at 37° C., the cell suspension after 4 hr was sampled, and stained using In Vitro MultiFlow™ DNA Damage Kit (Litron), and H2AX phosphorylation level in each nucleus was measured using a flow cytometer and average value was calculated. The H2AX phosphorylation level in the concurrent vehicle control group was also measured and average value was calculated. The rate of change in the H2AX phosphorylation level in the treatment groups relative to that in the control group was calculated, and Dunnett test (significance level: two-tailed 1%) was performed. In addition, the cell suspension after 24 hr treatment was sampled, and the nucleus number was measured, and variation in the nucleus number in the treatment groups relative to that in the concurrent vehicle control group was used as an indicator of cytotoxicity. […] Therefore, the potential of the compounds for DNA strand breakage was judged to be negative under this test condition.

Series [1] relates to P301S mutant human tau (4R1N) Tg mouse. The series can be described thus: Cognitive improvement action in neurodegenerative disease model mouse (novel object recognition test). In kind it is in vivo. Here is the method: Cognitive Improvement Action in Neurodegenerative Disease Model Mouse
A drug was suspended in 0.5% methyl cellulose to prepare a suspension for administration. The suspension was repeatedly administered into six month-old male P301S mutant human tau (4R1N) Tg mouse once a day for three months, and novel object recognition test was performed by the following method. The test is comprised of memory acquisition trial of object on the first day, and memory retention trial of familiar object and novel object on the second day. Drug was administered into the mouse 1 hr before the trials on both days. For acquisition trial, The mouse was put in a test box (30 cm×30 cm×25 cm) in which two identical objects were placed, and contact frequency and contact duration with the objects for 5 min were measured under 50 lux. […] Next day, one of the objects was replaced with new object, and contact frequency and contact duration with each object for 5 min were measured. Novelty Discrimination Index (NDI) as an index of cognitive function was calculated by novel object contact […]/(novel object contact duration+familiar object contact duration)%. […] After F test for vehicle administration wild-type group and vehicle administration Tg group, the significant difference between the two groups was analyzed by Student t-test or Welch test (indicated as ** p<0.01). […]

The structures appear in SMILES notation.

On to `O=C1c2cc(-c3nnc(C(F)F)o3)cnc2CN1[C@@H]1CCCC[C@H]1NC(=O)C(F)(F)C(F)(F)F` [Example 489, N-((1R,2R)-2-(3-(5-(difluoromethyl)-1,3,4-oxadiazol-2-yl)-5-oxo-5,7-dihydro-6H-pyrrolo[3,4-b]pyridin-6-yl)cyclohexyl)-2,2,3,3,3-pentafluoropropanamide], for which, in the series with bone-marrow cells, the “genotoxic potential (judgement, micronucleus test and comet assay combined)” value was “negative”; the “micronucleus formation in bone-marrow cell” value is given as “not induced”. In the series with TK6 cells, the “histone H2AX phosphorylation (γH2AX) resulted from DNA strand breakage” value is “did not induce histone H2AX phosphorylation” and the “potential for DNA strand breakage (judgement)” value was “negative”. In series [1] (1 mg/kg once a day for three months), the “Novelty Discrimination Index (NDI)” value is given as “significant improvement in NDI was observed”. Moreover, the “Novelty Discrimination Index (NDI)” value in series [1] (3 mg/kg once a day for three months) is given as “significant improvement in NDI was observed”.
